Legend:
Assay type in all cases: cell-based, human
FaDu cells = assay: Proliferative assay of tumor cell; details: fifth day after the treatment, compared to the DMSO control
Protocol: In order to evaluate effects of selected aquatic microbial extracts having an anti-cancer effect, FaDu cells (1×10^5/well) treated with 0, 10 and 30 ng/ml of HGF were treated with an aquatic Bacillus sp. strain extract (concentration: 1, 10 and 100 μM), and then incubated for 5 days. Then, 1, 3 and 5-day growth of the FaDu cells were determined by measuring the cell number of the FaDu cells using a haemocytometer. In this case, a medium was replaced by fresh medium. This experiment was repeated five times to statistically analyze the cell number difference according to the amounts of HGF and the extract.

MMP-2 = assay: Expression level test of MMP using RT-PCR; details: for expression level of the MMP-2: 24 and 48 hours
Protocol: 1 ml of a cancer cell line was homogenated in a TRIzol (GIBCOBRL, Grand Island, N.Y., USA) reagent, and the total RNA was extracted from the cancer cell line. 2 μg of the total RNA extracted from the hypopharyngeal cancer cell line was put into reaction mixtures of an Omniscript Reverse Transcriptase kit (20511, Qiagen Germany) (including 2.0 μl of 10× Buffer RT, 2.0 μl of dNTP Mix (5 mM each dNTP), 2.0 μl of Oligo-dT primer (10 μM), 1.0 μl of a RNase inhibitor (10 units/μl), 2 units of Omniscript Reverse Transcriptase and 20 μl of RNase-free water), and reverse transcribed at 37° C. for 60 minutes and at 94° C. for 5 minutes to synthesize cDNA. PCR was carried out using Minicycler™ (MJ research, USA), and the synthesized cDNA was added together with 1 unit of Taq DNA polymerase (Roche Diagnostics Co, Indianapolis, USA) and each primer, and then amplified.
DNA sequences of MMP-2 primer and MMP-9 primer used in this experiment were listed as follows.
A PCR procedure was carried out in one initial denaturation cycle at 96° C. for 3 minutes, 30 amplification cycles at 96° C. for 30 seconds, at 55° C. for 30 seconds and at 72° C. for 30 seconds, and one extension cycle at 72° C. for 5 minutes.

MMP-9 = assay: MMP activity test using zymogram; details: 10 ng HGF-treated group compared to the control
Protocol: Proteins were quantitified from each of the supernatants, 30 μg of each supernatant was taken, and 15 μl APMA was added to each of the supernatants and activated at 37° C. for 1 hour. The activated test samples were added, and treated with MightySlim™ SX 250 (Hoefer, Calif., USA) for 2 4 hours and 48 hours. Then, the resulting test samples were ground to obtain cytoplasm samples. 10 μl of the cytoplasm samples were taken from these cytoplasm samples and added to sample buffers, respectively, and kept for 10 minutes. Then, the cytoplasm samples were added to previously-prepared gels, and then reacted at 4° C. and 125V for 120 minutes using Novex XCell II. The resulting cytoplasm samples were kept in a renaturing buffer at a room temperature for 60 minutes, and, after a developing buffer was replaced by 100 ml of fresh developing buffer, the cytoplasm samples were kept in the fresh developing buffer for 18 hours at 37° C. while stirring. Then, the cytoplasm samples were stained with Coomassie blue for 3 hours, washed with water, and observed at intervals of 10 minutes. In this case, a the gels were destained with a destaining solution (Methanol 400 ml, Acetic acid 100 ml, Distilled water 500 ml), and photographs of the gels were then taken using an image analyzer.

Substance: HGF: hepatocyte growth factor used to stimulate cancer cells
- cell proliferation on stimulation with hepatocyte growth factor (FaDu cells): statistically significant cell proliferation
- expression level of the MMP-2 (MMP-2; 10 ng/ml HGF, vs control): not significantly different
- expression level of the MMP-2 (MMP-2; 30 ng/ml HGF): increased
- expression level between the control and the HGF-treated groups when MMP-2 was treated with the HGF (MMP-2; second statement, printed MMP-2): no distinct difference
- expression of the MMP-9 (MMP activity evaluation) (MMP-9): slightly increased

— patent US8440180B2, “Anti-cancer composition comprising aquatic microbial extract” (Ajou University Industry-Academic Cooperation Foundation, priority 2007, dated 2013)
